Reference: patent US20260190612A1, “LIGHT-EMITTING DEVICE” (SEMICONDUCTOR ENERGY LABORATORY CO., LTD., priority 2022, published 2026)
≈ marks a conversion by molar mass, not a printed value.

Test: solubility of the first organic compound in water

SMILES	solubility [µg/mL]
CC(C)(C)c1ccc2c(c1)C1(c3ccccc3-c3ccc(N4CCCN5CCCN=C54)cc31)c1cc(C(C)(C)C)ccc1-2 [2′,7′tBu-2hppSF, 1-(2′,7′-di-tert-butyl-9,9′-spirobi[9H-fluoren]-2-yl)-1,3,4,6,7,8-hexahydro-2H-pyrimido[1,2-a]pyrimidine]	< 2.3
c1ccc2c(c1)-c1ccccc1C21c2ccccc2-c2ccc(N3CCCN4CCCN=C43)cc21 [2hppSF, 1-(9,9′-spirobi[9H-fluoren]-2-yl)-1,3,4,6,7,8-hexahydro-2H-pyrimido[1,2-a]pyrimidine]	18 to 22 (≈ 39.7 to 48.5 µM)
c1ccc2c(c1)-c1ccccc1C21c2cc(N3CCCN4CCCN=C43)ccc2-c2ccc(N3CCCN4CCCN=C43)cc21 [2,7hpp2SF, 1,1′-(9,9′-spirobi[9H-fluorene]-2,7-diyl)bis(1,3,4,6,7,8-hexahydro-2H-pyrimido[1,2-a]pyrimidine)]	230 to 390 (≈ 389 to 660 µM)
